Assay results taken from PubChem BioAssay AID330 (DTP/NCI, 2004).
“And” between values parts separate entries of the source, which are not always exact repeats. Equal entries are not always repeated. Inconclusive results and toxic doses are left out. Peptide text beside a SMILES is read from it. * marks the point of attachment. Trt = c1ccc(C(c2ccccc2)(c2ccccc2)*)cc1

Tested on: P388 leukemia ip, CD2F1 mice, survival T/C
Assay: NCI In Vivo Anticancer Drug Screen. Data for tumor model P388 Leukemia (intraperitoneal) in CD2F1 (CDF1) mice
Conditions: endpoint: median survival time, higher = longer survival
Outline: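 Mice carrying the transplanted tumor received test compound or vehicle. Survival was recorded in each group, and the value is the treated-group measurement divided by that of the vehicle-treated control group.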

[1] = dose: 25.0 mg/kg/injection, schedule: Q01DX009 (ip), vehicle: saline with Tween-80
[2] = dose: 50.0 mg/kg/injection, schedule: Q01DX009 (ip), vehicle: saline with Tween-80
[3] = dose: 100.0 mg/kg/injection, schedule: Q01DX009 (ip), vehicle: saline with Tween-80
[4] = dose: 200.0 mg/kg/injection, schedule: Q01DX009 (ip), vehicle: saline with Tween-80
[5] = dose: 25.0 mg/kg/injection, schedule: Q01DX009 (ip), vehicle: Klucel (hydroxypropylcellulose) (HPC)
[6] = dose: 50.0 mg/kg/injection, schedule: Q01DX001 (ip), vehicle: saline
[7] = dose: 50.0 mg/kg/injection, schedule: Q01DX009 (ip), vehicle: Klucel (hydroxypropylcellulose) (HPC)
[8] = dose: 100.0 mg/kg/injection, schedule: Q01DX001 (ip), vehicle: saline
[9] = dose: 100.0 mg/kg/injection, schedule: Q01DX009 (ip), vehicle: Klucel (hydroxypropylcellulose) (HPC)
[10] = dose: 200.0 mg/kg/injection, schedule: Q01DX001 (ip), vehicle: saline
[11] = dose: 200.0 mg/kg/injection, schedule: Q01DX009 (ip), vehicle: Klucel (hydroxypropylcellulose) (HPC)
[12] = dose: 60.0 mg/kg/injection, schedule: Q01DX005 (ip), vehicle: saline with Tween-80
[13] = dose: 120.0 mg/kg/injection, schedule: Q01DX005 (ip), vehicle: saline with Tween-80
[14] = dose: 240.0 mg/kg/injection, schedule: Q01DX005 (ip), vehicle: saline with Tween-80
[15] = dose: 25.0 mg/kg/injection, schedule: Q01DX005 (ip), vehicle: saline with Tween-80
[16] = dose: 50.0 mg/kg/injection, schedule: Q01DX005 (ip), vehicle: saline with Tween-80
[17] = dose: 12.5 mg/kg/injection, schedule: Q01DX009 (ip), vehicle: saline with Tween-80
[18] = dose: 100.0 mg/kg/injection, schedule: Q04DX003 (ip), vehicle: saline with Tween-80
[19] = dose: 200.0 mg/kg/injection, schedule: Q04DX003 (ip), vehicle: saline with Tween-80
[20] = dose: 400.0 mg/kg/injection, schedule: Q04DX003 (ip), vehicle: saline with Tween-80
[21] = dose: 50.0 mg/kg/injection, schedule: Q01DX009 (ip), vehicle: saline
[22] = dose: 100.0 mg/kg/injection, schedule: Q01DX009 (ip), vehicle: saline
[23] = dose: 200.0 mg/kg/injection, schedule: Q01DX009 (ip), vehicle: saline
[24] = dose: 100.0 mg/kg/injection, schedule: Q01DX001 (ip), vehicle: Klucel (hydroxypropylcellulose) (HPC)
[25] = dose: 200.0 mg/kg/injection, schedule: Q01DX001 (ip), vehicle: Klucel (hydroxypropylcellulose) (HPC)
[26] = dose: 6.25 mg/kg/injection, schedule: Q01DX009 (ip), vehicle: saline
[27] = dose: 50.0 mg/kg/injection, schedule: Q01DX005 (ip), vehicle: saline
[28] = dose: 100.0 mg/kg/injection, schedule: Q01DX005 (ip), vehicle: saline
[29] = dose: 200.0 mg/kg/injection, schedule: Q01DX005 (ip), vehicle: saline
[30] = dose: 400.0 mg/kg/injection, schedule: Q01DX009 (ip), vehicle: saline with Tween-80
[31] = dose: 6.25 mg/kg/injection, schedule: Q01DX009 (ip), vehicle: saline with Tween-80

In the case of CCCCCCCCCCCCCCCCCCCCCCCCCCCCCCO, the T/C [1] is reported as 86 % of control, the T/C [2] is reported as 101 % of control and the T/C [3] is reported as 96 % of control. For the same compound, the T/C [4] was 92 % of control.
S=C(C(=S)N1CCOCC1)N1CCOCC1 was tested, and the T/C [5] was 110 % of control, the T/C [6] was 100 % of control and the T/C [7] was 99 % of control and 101 % of control and 112 % of control. For the same compound, the T/C [8] was 107 % of control, the T/C [9] was 101 % of control and 114 % of control and the T/C [10] was 112 % of control. For the same compound, the T/C [11] was 103 % of control and 110 % of control and 123 % of control.
With CC(=NCCCCN=C(C)c1cc(O)cc(Br)c1O)c1cc(O)cc(Br)c1O.[Co] the T/C [12] was 90 % of control, the T/C [13] was 98 % of control and the T/C [14] was 94 % of control.
Cc1ccc(O)c2c(NCCCCCCNc3cc(C)[n+](C)c4c(C)ccc(O)c34)cc(C)[n+](C)c12 was tested, and the T/C (dose: 12.5 mg/kg/injection, schedule: Q01DX005 (ip), vehicle: saline with Tween-80) was 99 % of control, the T/C [15] was 112 % of control and the T/C [16] was 92 % of control.
For CCN(CC)CCNC(=O)c1ccc(NCN2C(=O)NC(c3ccccc3)(c3ccccc3)C2=O)cc1, the T/C [12] was 104 % of control and the T/C [13] was 110 % of control.
In the case of Clc1ccccc1/C=C/C=C1c2ccccc2-c2ccccc21, the T/C [17] is reported as 90 % of control, the T/C [1] is reported as 104 % of control and the T/C [2] is reported as 113 % of control. For the same compound, the T/C [18] was 95 % of control, the T/C [19] was 109 % of control and the T/C [20] was 109 % of control.
With COC(=O)C(CC(C)C)NC(=O)C(N)CSC(c1ccccc1)(c1ccccc1)c1ccccc1 (centres undefined) (H-Cys(Trt)-Leu-OMe; configuration not given here) the T/C (dose: 60.0 mg/kg/injection, schedule: Q01DX005 (ip), vehicle: Klucel (hydroxypropylcellulose) (HPC)) was 113 % of control.
CCOC(=O)CNC1=NCCO1 was tested, and the T/C [21] was 109 % of control, the T/C [22] was 107 % of control and the T/C [23] was 102 % of control. For the same compound, the T/C (dose: 400.0 mg/kg/injection, schedule: Q01DX009 (ip), vehicle: saline) was 106 % of control.
Cc1cccc(/C=N/N2CCN(C(c3ccccc3)c3ccccc3)CC2)n1 was tested, and the T/C [24] was 100 % of control, the T/C [25] was 97 % of control and the T/C (dose: 400.0 mg/kg/injection, schedule: Q01DX001 (ip), vehicle: Klucel (hydroxypropylcellulose) (HPC)) was 100 % of control.
With CC(=O)N([Si](C)(C)C)[Si](C)(C)C the T/C [26] was 88 % of control and 96 % of control, the T/C (dose: 12.5 mg/kg/injection, schedule: Q01DX009 (ip), vehicle: saline) was 100 % of control and 109 % of control and 86 % of control and the T/C (dose: 25.0 mg/kg/injection, schedule: Q01DX009 (ip), vehicle: saline) was 101 % of control and 86 % of control and 93 % of control. The T/C [23] was 100 % of control.
For OC1(c2ccccc2)c2ccccc2NC2=NCCN21 (centres undefined), the T/C [15] was 105 % of control, the T/C [16] was 96 % of control and the T/C (dose: 100.0 mg/kg/injection, schedule: Q01DX005 (ip), vehicle: saline with Tween-80) was 104 % of control. The T/C (dose: 200.0 mg/kg/injection, schedule: Q01DX005 (ip), vehicle: saline with Tween-80) was 97 % of control.
In the case of NC1=C(c2cccc(Cl)c2)C(=O)CC12C=CC(=O)C=C2, the T/C [7] is reported as 100 % of control, the T/C [9] is reported as 104 % of control and the T/C [11] is reported as 102 % of control.
CC(C)(C)OC(=O)NC(CCCCNC(=O)OCc1ccccc1)C(=O)O (centres undefined) was tested, and the T/C (dose: 50.0 mg/kg/injection, schedule: Q01DX005 (ip), vehicle: distilled water + Tween-80 + alcohol) was 92 % of control, the T/C [27] was 106 % of control and the T/C (dose: 100.0 mg/kg/injection, schedule: Q01DX005 (ip), vehicle: distilled water + Tween-80 + alcohol) was 92 % of control. For the same compound, the T/C [28] was 100 % of control and the T/C [29] was 103 % of control.
For CN(C)c1ccc(/C=C(\C#N)C(N)=S)cc1, the T/C [21] was 100 % of control, the T/C [22] was 100 % of control and the T/C [23] was 106 % of control.
With COc1ccc(OCC(O)CN2CCN(c3ccc(Cl)cc3)CC2)cc1 (centres undefined) the T/C [3] was 99 % of control, the T/C (dose: 100.0 mg/kg/injection, schedule: Q04DX003 (ip), vehicle: Klucel (hydroxypropylcellulose) (HPC)) was 100 % of control and the T/C [4] was 101 % of control. For the same compound, the T/C (dose: 200.0 mg/kg/injection, schedule: Q04DX003 (ip), vehicle: Klucel (hydroxypropylcellulose) (HPC)) was 100 % of control and the T/C [30] was 92 % of control.
For CCN(CC)CCN1C(=O)CN=C(c2ccc[nH]2)c2cc(Cl)ccc21, the T/C [3] was 90 % of control, the T/C [18] was 100 % of control and the T/C [19] was 100 % of control. For the same compound, the T/C [30] was 95 % of control and the T/C [20] was 95 % of control.
In the case of [O-]c1ccccc1C=NCCN1CC1.[O-]c1ccccc1C=NCCN1CC1.[Zn+2], the T/C [31] is reported as 91 % of control, the T/C [17] is reported as 97 % of control and the T/C [1] is reported as 100 % of control.
C/C(N)=C\C(=S)Nc1ccccc1 was tested, and the T/C (dose: 12.5 mg/kg/injection, schedule: Q01DX009 (ip), vehicle: Klucel (hydroxypropylcellulose) (HPC)) was 100 % of control, the T/C [5] was 106 % of control and the T/C [7] was 104 % of control.
In the case of CCCCCCCCCCCCCCCCSc1ccncc1NN=O, the T/C (dose: 3.12 mg/kg/injection, schedule: Q01DX009 (ip), vehicle: saline with Tween-80) is reported as 99 % of control, the T/C [31] is reported as 106 % of control and the T/C [17] is reported as 101 % of control. The T/C [1] was 105 % of control, the T/C [2] was 99 % of control and 100 % of control and the T/C [3] was 113 % of control.
With O=C1CCCC(C(Sc2ccccc2)(Sc2ccccc2)Sc2ccccc2)C1 (centres undefined) the T/C [7] was 99 % of control, the T/C [9] was 95 % of control and the T/C [11] was 93 % of control.
In the case of O=C1OC(c2ccccc2)=N/C1=C\c1ccc(/C=C2/N=C(c3ccccc3)OC2=O)cc1, the T/C (dose: 100.0 mg/kg/injection, schedule: Q04DX002 (ip), vehicle: saline with Tween-80) is reported as 100 % of control, the T/C (dose: 200.0 mg/kg/injection, schedule: Q04DX002 (ip), vehicle: saline with Tween-80) is reported as 104 % of control and the T/C (dose: 400.0 mg/kg/injection, schedule: Q04DX002 (ip), vehicle: saline with Tween-80) is reported as 95 % of control.
In the case of O=c1[nH]c2cc([N+](=O)[O-])ccc2nc1/C=C(\O)c1ccccc1, the T/C (dose: 60.0 mg/kg/injection, schedule: Q01DX005 (ip), vehicle: Klucel + Tween-80) is reported as 100 % of control, the T/C (dose: 120.0 mg/kg/injection, schedule: Q01DX005 (ip), vehicle: Klucel + Tween-80) is reported as 92 % of control and the T/C (dose: 240.0 mg/kg/injection, schedule: Q01DX005 (ip), vehicle: Klucel + Tween-80) is reported as 92 % of control.
COc1cc2c(cc1OC)C(C)=NCC2 was tested, and the T/C (dose: 25.0 mg/kg/injection, schedule: Q01DX001 (ip), vehicle: saline) was 104 % of control, the T/C [6] was 95 % of control and the T/C [8] was 94 % of control. The T/C [10] was 98 % of control.
COC(=O)Cc1ccccc1-n1nccc1S(C)=O (centres undefined) was tested, and the T/C [12] was 109 % of control, the T/C [13] was 104 % of control and the T/C [14] was 106 % of control.
With CCCCCCCCCCCC(=O)C(=O)c1ccc(O)c(C)c1O the T/C [7] was 107 % of control, the T/C [9] was 105 % of control and the T/C [11] was 110 % of control.
N=C(N)Sc1ccccn1 was tested, and the T/C [22] was 94 % of control and the T/C [23] was 101 % of control.
C1CN2CN3CCN(CN1C3)C2 was tested, and the T/C [26] was 108 % of control, the T/C [21] was 158 % of control and the T/C [22] was 168 % of control.
For CC(O)C(NC(=O)OC(C)(C)C)C(=O)O (centres undefined), the T/C [27] was 103 % of control, the T/C [28] was 104 % of control and the T/C [29] was 102 % of control.
With CCOc1c(N2CCOCC2)c(=O)c1=O the T/C (dose: 100.0 mg/kg/injection, schedule: Q01DX001 (ip), vehicle: saline with Tween-80) was 100 % of control, the T/C (dose: 200.0 mg/kg/injection, schedule: Q01DX001 (ip), vehicle: saline with Tween-80) was 100 % of control and the T/C (dose: 400.0 mg/kg/injection, schedule: Q01DX001 (ip), vehicle: saline with Tween-80) was 90 % of control.
With CNC(=S)N\N=C/C(/C=C/c1ccccc1)=N\NC(=S)NC the T/C [24] was 90 % of control and the T/C [25] was 100 % of control.
With Clc1ccc2ccc3ccc(Cl)nc3c2n1 the T/C [12] was 92 % of control, the T/C [13] was 89 % of control and the T/C [14] was 92 % of control.
